Test results as given in ChEMBL document CHEMBL1158091, “Amphimedosides, 3-alkylpyridine glycosides from a marine sponge Amphimedon sp” (J Nat Prod, 2006).
Converted amounts (≈) assume the structure as drawn.

System: P388
Experiment: Cytotoxicity against mouse P388 cells by MTT assay
Type: functional, cell-based

| SMILES | IC50 |
| --- | --- |
| CON(CC(C)CCCCCCCCCCc1cccnc1)[C@@H]1O[C@H](CO)[C@@H](O)[C@H](O)[C@H]1O (stereo not given in full) [AMPHIMEDOSIDE D] | 0.45 µg/mL (≈ 0.96 µM) |
| CON(CCCCCCCCCCC#CCCc1cccnc1)[C@@H]1O[C@H](CO)[C@@H](O)[C@H](O)[C@H]1O [AMPHIMEDOSIDE C] | 5 µg/mL (≈ 10.4 µM) |
| CON(CCCCCCCCCCC#CCCCCc1cccnc1)[C@@H]1O[C@H](CO)[C@@H](O)[C@H](O)[C@H]1O [AMPHIMEDOSIDE A] | 11 µg/mL (≈ 21.7 µM) |
| CON(CCCCCCCCC#CCCCCc1cccnc1)[C@@H]1O[C@H](CO)[C@@H](O)[C@H](O)[C@H]1O [AMPHIMEDOSIDE B] | 11 µg/mL (≈ 23 µM) |
| CON(CCCC/C=C\CCCCCCCCc1cccnc1)[C@@H]1O[C@H](CO)[C@@H](O)[C@H](O)[C@H]1O [AMPHIMEDOSIDE E] | 2.2 µg/mL (≈ 4.58 µM) |
